# From patent US7435740B2 (King Pharmaceuticals Research and Development, Inc., priority 2005, dated 2008)
# Where two headings read alike, the source gives them in different places.
# Columns and labels:
# [1] = target: T1, human recombinant A2B adenosine receptor (Homo sapiens, UniProt P29275); assay: cAMP assay in CHO hA2B; format: cell-based; settings: for cAMP assay in CHO hA22B, percentage in parentheses: percentage given after the > bound, meaning not defined in the patent; for IC50: confidence limits in parentheses, read-out: cAMP assay in CHO hA22B IC50
# T1 sequence (P29275 1-332): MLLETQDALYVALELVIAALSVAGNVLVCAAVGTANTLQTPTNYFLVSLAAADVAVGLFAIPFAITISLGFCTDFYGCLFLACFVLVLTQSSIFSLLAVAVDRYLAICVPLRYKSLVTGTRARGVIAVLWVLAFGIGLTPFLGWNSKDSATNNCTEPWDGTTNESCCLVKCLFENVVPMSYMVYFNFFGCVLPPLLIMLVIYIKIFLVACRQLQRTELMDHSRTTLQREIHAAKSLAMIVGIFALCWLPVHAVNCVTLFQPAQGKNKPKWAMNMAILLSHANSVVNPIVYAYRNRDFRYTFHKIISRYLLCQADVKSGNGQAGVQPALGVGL
# [2] = target: T2, human recombinant A3 adenosine receptors (Homo sapiens, UniProt P0DMS8); assay: [3H]-MRE 3008F20 binding to hA3 receptors expressed in CHO cells; settings: for Ki: CHO cell membranes, 1 nM [3H]-MRE 3008F20, geometric mean, confidence limits in the line below, read-out: [3H] MRE3008F20 binding to hA3 receptors expressed in CHO cells Ki; for A3 receptor affinity (in words) / selectivity versus the adenosine hA1 subtype (in words): qualitative statement; for selectivity versus the adenosine hA1 subtype (in words): hA3 versus hA1; for [3H] MRE3008F20 binding to hA3 receptors, percentage in parentheses: percentage printed below the > bound, meaning not defined in the patent
# T2 construct: expressed in transfected cells; host or cells: CHO cells (membranes)
# T2 sequence (P0DMS8 1-318): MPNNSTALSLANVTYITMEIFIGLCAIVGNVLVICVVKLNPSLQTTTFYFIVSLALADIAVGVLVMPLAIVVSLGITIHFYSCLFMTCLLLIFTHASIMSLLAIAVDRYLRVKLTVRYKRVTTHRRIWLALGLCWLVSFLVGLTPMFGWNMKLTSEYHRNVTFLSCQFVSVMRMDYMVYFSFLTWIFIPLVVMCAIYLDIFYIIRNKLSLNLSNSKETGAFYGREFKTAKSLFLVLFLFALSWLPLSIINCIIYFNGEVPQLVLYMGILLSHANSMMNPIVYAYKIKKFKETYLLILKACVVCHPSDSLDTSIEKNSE
# [3] = target: human recombinant A2A adenosine receptors (Homo sapiens, UniProt P29274); assay: Radioligand binding to hA2A receptors expressed in CHO cells; settings: for [3H] ZM 241385 binding to hA2A receptors, percentage in parentheses: percentage given after the > bound, meaning not defined in the patent
# [4] = target: T3, human recombinant A1 adenosine receptor (Homo sapiens, UniProt P30542); assay: [3H]-DPCPX binding to human A1 adenosine receptor expressed in CHO cells; settings: for [3H] DPCPX binding to hA1, percentage in parentheses: percentage given after the > bound, meaning not defined in the patent
# T3 sequence (P30542 1-326): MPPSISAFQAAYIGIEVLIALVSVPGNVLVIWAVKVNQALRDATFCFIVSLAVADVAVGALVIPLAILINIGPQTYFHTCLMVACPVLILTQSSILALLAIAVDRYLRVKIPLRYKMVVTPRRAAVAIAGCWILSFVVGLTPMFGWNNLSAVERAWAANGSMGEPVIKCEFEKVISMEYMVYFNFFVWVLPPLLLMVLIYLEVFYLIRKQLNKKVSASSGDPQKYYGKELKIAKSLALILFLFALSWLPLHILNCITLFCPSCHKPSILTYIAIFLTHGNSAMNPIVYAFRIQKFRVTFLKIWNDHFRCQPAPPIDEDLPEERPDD
# [5] = read-out: [3H] DPCPX binding to hA1, CHO cell membranes, 1 nM [3H]-DPCPX, geometric mean with confidence limits in parentheses
# human recombinant A2A adenosine receptors, sequence (P29274 whole entry): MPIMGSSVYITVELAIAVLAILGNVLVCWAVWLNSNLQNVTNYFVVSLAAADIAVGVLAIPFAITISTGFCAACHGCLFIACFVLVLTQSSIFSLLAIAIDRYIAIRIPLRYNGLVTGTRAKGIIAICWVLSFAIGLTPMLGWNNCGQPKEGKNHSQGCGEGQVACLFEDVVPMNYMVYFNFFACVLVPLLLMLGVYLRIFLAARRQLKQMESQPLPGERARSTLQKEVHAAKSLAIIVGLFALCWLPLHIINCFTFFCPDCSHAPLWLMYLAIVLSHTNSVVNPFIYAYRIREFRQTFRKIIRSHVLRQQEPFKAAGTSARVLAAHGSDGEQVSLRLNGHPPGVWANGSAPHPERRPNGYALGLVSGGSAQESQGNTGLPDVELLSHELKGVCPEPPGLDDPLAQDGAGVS
Structure (SMILES),"cAMP assay in CHO hA22B, percentage in parentheses [1] [%]",Ki [2] [µM],melting point [°C],"[3H] ZM 241385 binding to hA2A receptors, percentage in parentheses [3] [%]","Ki [4, 5] [µM]",IC50 [1] [µM],Ki [3] [µM],Ki [4] [µM],selectivity versus the adenosine hA1 subtype (in words) [2],"[3H] MRE3008F20 binding to hA3 receptors, percentage in parentheses [2]","[3H] DPCPX binding to hA1, percentage in parentheses [4] [%]",A3 receptor affinity (in words) [2]
"CCCn1c(=O)c2c(nc3[nH]c(C(C)C)cn32)n(Cc2ccccc2)c1=O [Compound 21, 1-Benzyl-7-isopropyl-3-propyl-1H-imidazo[1,2-f]purine-2,4(3H,8H)-dione]",77,0.031,128 to 130,91,0.46,–,–,–,–,–,–,–
"CC(C)Cn1c(=O)c2c(nc3[nH]c(-c4ccccc4)cn32)n(CC(C)C)c1=O [Compound 9, 1,3-Diisobutyl-7-phenyl-1H-imidazo[1,2-f]purine-2,4(3H,8H)-dione]",99,0.144,–,86,0.476,> 1,> 1,–,significant loss of selectivity,–,–,substantial maintenance of A3 receptor affinity
"Cc1cn2c(nc3c2c(=O)n(C)c(=O)n3C)[nH]1 [Compound 27, 1,3,7-Trimethyl-1H-imidazo[1,2-f]purine-2,4(3H,8H)-dione]",88,> 1,–,99,–,> 1,> 1,> 1,–,(93%),96,–
"CCCn1c(=O)c2c(nc3n2CC(c2ccccc2)=NN3C)n(Cc2ccccc2)c1=O [Compound 6, 8-Benzyl-1-methyl-3-phenyl-6-propyl-1,4-dihydro-8H-1,2,4a,6,8,9-hexaaza-fluorene-5,7-dione]",94,> 1,–,99,–,> 1,> 1,> 1,–,(99%),79,–
"CCCn1c(=O)c2c(nc3[nH]c(-c4ccc(OC)cc4)cn32)n(Cc2ccccc2)c1=O [Compound 3, 1-Benzyl-7-(4-methoxyphenyl)-3-propyl-1H-imidazo[1,2-f]purine-2,4(3H,8H)-dione]",–,0.055,257,99,–,–,–,–,–,–,99,–
"CCCn1c(=O)c2c(nc3[nH]c(C4CCCCC4)cn32)n(Cc2ccccc2)c1=O [Compound 24, 1-Benzyl-7-cyclohexyl-3-propyl-1H-imidazo[1,2-f]purine-2,4(3H,8H)-dione]",71,0.555,130 to 132,99,–,–,–,–,–,–,72,–
"CCCn1c(=O)c2c(nc3[nH]c(-c4ccc(-c5ccccc5)cc4)cn32)n(Cc2ccccc2)c1=O [Compound 4, 1-Benzyl-7-(biphenyl-4-yl)-3-propyl-1H-imidazo[1,2-f]purine-2,4(3H,8H)-dione]",–,> 1,272,98,–,–,–,–,–,(90%),95,–
"CCCn1c(=O)c2c(nc3n2CC(c2ccccc2)=NN3CCO)n(Cc2ccccc2)c1=O [Compound 7, 8-Benzyl-1-(2-hydroxy-ethyl)-3-phenyl-6-propyl-1,4-dihydro-8H-1,2,4a,6,8,9-hexaaza-fluorene-5,7-dione]",83,> 1,–,99,–,> 1,> 1,> 1,–,(99%),91,–
"CCCn1c(=O)c2c(nc3[nH]c(C(C)(C)C)cn32)n(Cc2ccccc2)c1=O [Compound 22, 1-Benzyl-7-tert-butyl-3-propyl-1H-imidazo[1,2-f]purine-2,4(3H,8H)-dione]",86,0.099,230,99,–,–,–,–,–,–,51,–
"CCCn1c(=O)c2c(nc3[nH]c(-c4ccc(F)cc4)cn32)n(Cc2ccccc2)c1=O [Compound 5, 1-Benzyl-7-(4-fluorophenyl)-3-propyl-1H-imidazo[1,2-f]purine-2,4(3H,8H)-dione]",–,0.022,250,97,–,–,–,–,–,–,90,–
"CCCn1c(=O)c2c(nc3[nH]c(-c4ccccc4)cn32)n(Cc2ccccc2)c1=O [Compound 2, 1-Benzyl-7-phenyl-3-propyl-1H-imidazo[1,2-f]purine-2,4(3H,8H)-dione]",–,0.115,255,99,–,–,–,–,–,–,83,–
"CCCn1c(=O)c2c(nc3[nH]c(-c4ccccc4)cn32)n(CCC)c1=O [Compound 8, 7-Phenyl-1,3-dipropyl-1H-imidazo[1,2-f]purine-2,4(3H,8H)-dione]",61,0.099,–,78,0.373,> 1,> 1,–,significant loss of selectivity,–,–,substantial maintenance of A3 receptor affinity

# Further lines, with some results ahead:
"cAMP assay in CHO hA22B, percentage in parentheses [1] [%]",Ki [2] [µM],melting point [°C],"[3H] ZM 241385 binding to hA2A receptors, percentage in parentheses [3] [%]","Ki [4, 5] [µM]",IC50 [1] [µM],Ki [3] [µM],Ki [4] [µM],selectivity versus the adenosine hA1 subtype (in words) [2],"[3H] MRE3008F20 binding to hA3 receptors, percentage in parentheses [2]","[3H] DPCPX binding to hA1, percentage in parentheses [4] [%]",Structure (SMILES),A3 receptor affinity (in words) [2]
71,–,–,–,–,–,–,–,–,–,–,"CCCn1c(=O)c2c(nc3n2CC(CC)=C3)n(Cc2ccccc2)c1=O [Compound 18, 1-Benzyl-7-ethyl-3-propyl-1H-pyrrolo[1,2-f]purine-2,4(3H,6H)-dione]",–
–,0.008,–,99,–,0.4,> 5,3.03,–,–,–,"CCCn1c(=O)c2c(nc3n2CC(C)=C3)n(Cc2ccccc2)c1=O [Compound 17, 1-Benzyl-7-methyl-3-propyl-1H-pyrrolo[1,2-f]purine-2,4(3H,6H)-dione]",–
60,0.08,–,91,–,–,–,–,–,–,65,"CCCn1c(=O)c2c(nc3n2C(C)C(C)=C3)n(Cc2ccccc2)c1=O (stereo not shown) [Compound 19, 1-Benzyl-6,7-dimethyl-3-propyl-1H-pyrrolo[1,2-f]purine-2,4(3H,6H)-dione]",–
97,0.015,285,99,–,–,–,–,–,–,65,"CCCn1c(=O)c2c(nc3[nH]c(CC)cn32)n(Cc2ccccc2)c1=O [Compound 20, 1-Benzyl-7-ethyl-3-propyl-1H-imidazo[1,2-f]purine-2,4(3H,8H)-dione]",–
73,0.06,230,97,–,–,–,–,–,–,80,"CCCn1c(=O)c2c(nc3[nH]c(CC)c(C)n32)n(Cc2ccccc2)c1=O [Compound 26, 1-Benzyl-7-ethyl-6-methyl-3-propyl-1H-imidazo[1,2-f]purine-2,4(3H,8H)-dione]",–
–,0.2,–,99,–,–,–,–,–,–,75,"CCCn1c(=O)c2c(nc3n2CC(c2ccccc2)=C3)n(Cc2ccccc2)c1=O [Compound 1, 1-Benzyl-7-phenyl-3-propyl-1H-pyrrolo[1,2-f]purine-2,4(3H,6H)-dione]",–
–,–,255,–,–,2.06,–,–,–,–,–,"CCCn1c(=O)c2c(nc3[nH]c(C)cn32)n(Cc2ccccc2)c1=O [Compound 10, 1-Benzyl-7-methyl-3-propyl-1H-imidazo[1,2-f]purine-2,4(3H,8H)-dione]",–
